1 compound from ChEMBL document CHEMBL6078688, “Discovery of Novel MyD88 Inhibitor A5S to Alleviate Acute Lung Injury with Favorable Drug-like Properties” (J Med Chem, 2024) can be followed below.

Broadly, the AUC(0-inf) is the area under the concentration-time curve extrapolated to infinity. Read a high AUC(0-inf) as more exposure. For orientation: bioavailability means dose-corrected exposure relative to a reference, in per cent. A low value points to little systemic uptake. Broadly, the IC50 is the concentration that gives 50% inhibition.

Data set [1] deals with Mus musculus. Briefly: Antiinflammatory activity against LPS induced acute lung injury C57BL/6 mouse model assessed as reduction in TNF-alpha level in BALF at 20 mg/kg,po administrated with compound for 30 mins followed by LPS treatment and measured after 6 hrs by ELISA. The data set is classed as functional, organism-based. Conditions: time 6.5 hrs.
The nature of data set [2]: Acute toxicity in C57BL/6 mouse assessed as pathological change in kidney at 500 mg/kg,po administration measured upto 11 days by hematoxylin and eosin staining based assay. The data set is classed as organism-based. Conditions: in vivo, 264 h, time < 11 day.
In data set [3] the test system is Mus musculus. Briefly: Antiinflammatory activity in cecal ligation and puncture induced sepsis C57BL/6 mouse model assessed as reduction in interstitial edema in lung at 20 mg/kg,po administrated with compound for 6 hrs followed by CLP induction and measured after 12 hrs by H and E staining based analysis. The class given is functional, organism-based. Conditions: time 18.0 hrs.

Data set [4] relates to Mus musculus. The data set is described as follows: Antiinflammatory activity in cecal ligation and puncture induced sepsis C57BL/6 mouse model assessed as reduction in TNF-alpha mRNA level in lung at 20 mg/kg,po administrated with compound for 6 hrs followed by CLP induction and measured after 12 hrs by RT-PCR analysis. The class given is functional, organism-based. Conditions: time 18.0 hrs.

Data set [5] concerns Mus musculus. The data set is described as follows: Antiinflammatory activity in cecal ligation and puncture induced sepsis C57BL/6 mouse model assessed as reduction in TNF-alpha level in BALF at 20 mg/kg,po administrated with compound for 6 hrs followed by CLP induction and measured after 12 hrs by ELISA. The data set is classed as functional, organism-based. Conditions: time 18.0 hrs. (An ELISA detects its analyte on a solid surface through an enzyme-linked reagent.)

Data set [6] has as its system J774.A1. The data set is described as follows: Cytotoxicity against mouse J774.A1 cells at 3 to 12 uM by MTT assay. Conditions: j774.a1, 12 µM, dose 3-12 µM. The class given is toxicity, cell-based. Background: Tetrazolium dyes change colour on reduction, which living cells bring about.
The nature of data set [7]: Stability of compound in rat serum measured upto 12 hrs. The data set is classed as ADME, cell-free.
Data set [8] deals with Peritoneal macrophage. Briefly: Antiinflammatory activity in LPS-induced mouse Peritoneal macrophage cells assessed as inhibition of IFN-beta mRNA level at 1.25 to 5 uM by RT-PCR analysis. Conditions: dose 1.25-5 µM. The data set is classed as functional, cell-based.
Data set [9] can be described thus: AUC (0 to infinity) in Sprague-Dawley rat at 20 mg/kg,po administration measured upto 24 hrs by LC-MS/MS analysis. The class given is ADME, organism-based. Conditions: in vivo.
The target in data set [10] is Myeloid differentiation primary response protein MyD88 (Homo sapiens, UniProt Q99836). The data set is described as follows: Binding affinity to CM5 sensor chip immobilized human MyD88 TIR domain assessed as thermal stabilization at 10 uM incubated for 4 hrs by cellular thermal shift assay.
Chain of Myeloid differentiation primary response protein MyD88 (Q99836 whole entry, the tested form may be a part): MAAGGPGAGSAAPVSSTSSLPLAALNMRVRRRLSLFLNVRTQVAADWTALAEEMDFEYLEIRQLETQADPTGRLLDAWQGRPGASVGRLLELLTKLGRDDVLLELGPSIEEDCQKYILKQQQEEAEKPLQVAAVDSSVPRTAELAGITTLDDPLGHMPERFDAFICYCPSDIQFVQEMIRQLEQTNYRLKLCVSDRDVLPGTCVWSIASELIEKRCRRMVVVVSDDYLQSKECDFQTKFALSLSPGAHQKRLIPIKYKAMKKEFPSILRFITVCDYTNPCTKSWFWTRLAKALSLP
Data set [11] can be described thus: AUC (0 to infinity) in Sprague-Dawley rat at 1 mg/kg,iv administration measured upto 24 hrs by LC-MS/MS analysis. The class given is ADME, organism-based. Conditions: in vivo.
In data set [12] the test system is Mus musculus. Briefly: Antiinflammatory activity against LPS induced acute lung injury C57BL/6 mouse model assessed as reduction in total cell count in BALF at 20 mg/kg,po administrated with compound for 30 mins followed by LPS treatment and measured after 6 hrs. The class given is functional, organism-based. Conditions: time 6.5 hrs.
For data set [13], the system named is J774.A1. The data set is described as follows: Inhibition of MAPK signalling pathway in LPS stimulated mouse J774.A1 cells assessed as downregulation of p38 phosphorylation by Western blotting analysis. The data set is classed as cell-based.
In data set [14] the test system is Mus musculus. The data set is described as follows: Antiinflammatory activity against LPS induced acute lung injury C57BL/6 mouse model assessed as reduction in TNF-alpha level in serum at 20 mg/kg,po administrated with compound for 30 mins followed by LPS treatment and measured after 6 hrs by ELISA. The class given is functional, organism-based. Conditions: time 6.5 hrs.

In data set [15] the test system is Mus musculus. Briefly: Antiinflammatory activity against LPS induced acute lung injury C57BL/6 mouse model assessed as reduction in IL-6 level in BALF at 20 mg/kg,po administrated with compound for 30 mins followed by LPS treatment and measured after 6 hrs by ELISA. Conditions: time 6.5 hrs. The data set is classed as functional, organism-based.
Data set [16] can be described thus: Oral bioavailability in Sprague-Dawley rat at 20 mg/kg administration measured upto 24 hrs by LC-MS/MS analysis. Conditions: in vivo. The class given is ADME, organism-based.
Data set [17] relates to Mus musculus. The data set is described as follows: Antiinflammatory activity against LPS induced acute lung injury C57BL/6 mouse model assessed as reduction in spleen weight at 20 mg/kg,po administrated with compound for 30 mins followed by LPS treatment and measured after 6 hrs. The class given is functional, organism-based. Conditions: time 6.5 hrs.
The test system of data set [18] is J774.A1. Briefly: Inhibition of NF-kappaB signalling pathway in LPS-induced mouse J774.A1 cells assessed as downregulation of p65 phosphorylation by Western blotting analysis. The class given is cell-based. In general terms: In western blotting, separated proteins are transferred to a membrane and probed.
Data set [19] concerns Mus musculus. The data set is described as follows: Antiinflammatory activity in cecal ligation and puncture induced sepsis C57BL/6 mouse model assessed as reduction in IL-6 mRNA level in lung at 20 mg/kg,po administrated with compound for 6 hrs followed by CLP induction and measured after 12 hrs by RT-PCR analysis. Conditions: time 18.0 hrs. The class given is functional, organism-based.

The target in data set [20] is Toll-like receptor 4/Ly96 (Mus musculus) (UniProt Q9QUK6+Q9JHF9). Briefly: Inhibition of MD2/TLR4 protein-protein interaction in LPS-induced mouse J774.A1 cells at 20 uM incubated for 2 hrs by coimmunoprecipitation analysis. The data set is classed as cell-based.
Data set [21] concerns J774.A1. The data set is described as follows: Anti-inflammatory activity in LPS-induced mouse J774.A1 cells assessed as inhibition of IL-6 production by ELISA. The class given is functional, cell-based.
The target in data set [22] is TLR4-MyD88 (Mus musculus) (UniProt Q9QUK6+P22366). The data set is described as follows: Inhibition of MYD88/TLR4 protein-protein interaction in LPS-induced mouse J774.A1 cells at 20 uM incubated for 2 hrs by coimmunoprecipitation analysis. The class given is cell-based.
Chain of TLR4-MyD88 (Mus musculus) (P22366 whole entry, looked up): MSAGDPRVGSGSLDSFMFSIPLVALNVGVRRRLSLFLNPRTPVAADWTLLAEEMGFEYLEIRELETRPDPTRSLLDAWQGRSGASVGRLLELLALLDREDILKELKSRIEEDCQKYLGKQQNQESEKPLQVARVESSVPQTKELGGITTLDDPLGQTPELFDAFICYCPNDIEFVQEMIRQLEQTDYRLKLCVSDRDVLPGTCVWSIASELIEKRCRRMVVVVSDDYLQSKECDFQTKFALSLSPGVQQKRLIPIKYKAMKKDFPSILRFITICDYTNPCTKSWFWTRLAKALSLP
Chain of TLR4-MyD88 (Mus musculus) (Q9QUK6 whole entry, looked up): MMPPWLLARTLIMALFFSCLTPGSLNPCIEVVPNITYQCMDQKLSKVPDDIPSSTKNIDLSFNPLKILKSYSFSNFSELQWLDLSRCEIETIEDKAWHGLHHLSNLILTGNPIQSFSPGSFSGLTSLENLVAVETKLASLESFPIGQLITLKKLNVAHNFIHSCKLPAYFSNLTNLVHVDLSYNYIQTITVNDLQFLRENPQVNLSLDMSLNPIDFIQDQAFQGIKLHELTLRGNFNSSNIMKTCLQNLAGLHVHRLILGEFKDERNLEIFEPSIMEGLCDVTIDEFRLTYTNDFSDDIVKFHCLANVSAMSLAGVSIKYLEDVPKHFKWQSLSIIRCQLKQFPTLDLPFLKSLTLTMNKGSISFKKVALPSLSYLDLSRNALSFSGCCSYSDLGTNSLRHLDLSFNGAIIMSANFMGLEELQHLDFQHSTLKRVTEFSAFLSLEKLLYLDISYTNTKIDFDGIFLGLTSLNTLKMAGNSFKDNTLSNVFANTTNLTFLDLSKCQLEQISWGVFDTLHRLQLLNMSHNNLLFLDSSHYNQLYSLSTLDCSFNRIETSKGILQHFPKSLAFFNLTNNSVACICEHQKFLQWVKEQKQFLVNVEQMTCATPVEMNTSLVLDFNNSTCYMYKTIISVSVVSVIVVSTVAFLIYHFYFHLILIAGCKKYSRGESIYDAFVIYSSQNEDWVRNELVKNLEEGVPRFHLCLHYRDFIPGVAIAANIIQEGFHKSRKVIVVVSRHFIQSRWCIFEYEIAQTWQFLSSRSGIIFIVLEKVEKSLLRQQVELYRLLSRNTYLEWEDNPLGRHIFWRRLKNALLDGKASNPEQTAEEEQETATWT

The structures appear in SMILES notation. Calls of active or inactive are those of the source. The rule behind the calls is not given here.

On to `O[C@H](COc1ccc(Br)cc1)CN1CCN(Cc2cc3ccccc3[nH]2)CC1`, for which the result in data set [1], in data set [3], in [4], in [5], in data set [10] and in data set [12] was Active. Moreover, the result in [14], in data set [15], in [17] and in data set [19] was Active. Moreover, the Activity entry in [2] and in [6] was “Non-toxic” in each case. The Stability entry in [7] was “Stable”. Moreover, the result in data set [8] was inactive. The figures for the total exposure AUC(0-inf) in data set [9] and in data set [11] were 3.2 µg·h/mL and 0.698 µg·h/mL, respectively. Besides, the inhibition entry in data set [13], in data set [18] and in [22] was “Active” each time. This compound also showed a bioavailability in [16] of 20.7%. Also, the inhibition result in data set [20] was “inactive”. Further, the IC50 in data set [21] is 0.24 µM.
